{"source": "paper PMC6949113", "about": "“Preclinical evaluation of AT-527, a novel guanosine nucleotide prodrug with potent, pan-genotypic activity against hepatitis C virus” (PLoS ONE, 2020)", "key": {"[1]": {"experiment": "Rat pharmacokinetic study, plasma", "format": "in vivo, Sprague-Dawley rat", "settings": "both sexes, Sprague-Dawley, rat, in vivo, po, 500 mg/kg"}, "Monkey PK study, plasma": {"experiment": "Monkey PK study, plasma", "format": "in vivo, cynomolgus monkey", "settings": "for plasma concentration, individual monkeys: AT-527 30 mg/kg oral, monkeys 1-3, BQL: <0.0017 AT-511, <0.0032 AT-273; for plasma concentration: male cynomolgus monkeys; for Cmax / MRT last / Tmax / AUC(0-t): male, cynomolgus, cynomolgus monkey; for AUC(0-t): read-out: AUC0-last", "excerpt": "Monkey PK study. Male non-naïve cynomolgus monkeys were obtained from Hainan Jingang Laboratory Animal Co., Ltd. (Hainan, China), group housed during the 5-day acclimation period or individually housed during the study in stainless steel mesh cages, provided ad libitum access to RO water, fed twice daily (~120 g Certified Monkey Diet daily; Beijing Vital Keao Feed Co., Ltd., Beijing, China) and given daily treats of fresh fruit. Additional environmental enrichment included classical music and cartoons. Three groups of 5 monkeys each were administered 30, 100 or 300 mg/kg AT-527 as a powder filled in empty porcine hard gelatin capsules (size 0). The monkeys were fasted overnight prior to dosing and fed 4 h after dosing. Three dosages were selected to provide assessments of dose proportionality, the top two representing potential doses for a repeated oral dose toxicity study in monkeys, and the lowest predicted to be more therapeutically relevant. A pill gun was used to place the capsule beyond the root of the animals’ tongues and their mouths were held loosely closed for approximately 30 sec to allow them to move the jaw and swallow the capsule. Immediately following capsule administration, 20 mL of water was given by mouth and then the mouth was opened to ensure the capsule was swallowed. Blood samples (~0.6 mL) were collected up to 72 h from three animals per dose group, and up to 4 h from the remaining two animals in each group, at the same time points described for rats. […] Blood samples were collected with a syringe from a peripheral blood vessel from restrained, non-sedated animals, immediately transferred to pre-chilled tubes containing ~1 mg K2EDTA•2H20 and 20 μL of 5 mM dichlorvos solution, mixed and placed on ice until plasma was prepared by centrifugation as described for rats. Immediately after centrifugation, plasma samples were extracted with 4 volumes ISS2, and the supernatants were clarified by centrifugation (12,000 rpm, 10 min, 4°C) and stored at ≤ -60°C until analyzed by LC-MS/MS as described below. After the 4-hr blood collection, two monkeys per dose group were anesthetized with intravenous injection of pentobarbital sodium (60 mg/kg) and then euthanized as described for rats. […] All analytes were quantitated by LC-MS/MS as described below.\nLC-MS/MS analysis of rat and monkey plasma and tissue homogenate supernatants. For the analysis of AT-511 in rat plasma, aliquots were extracted with 10 volumes ISS2. The supernatants were clarified by centrifugation (4000 rpm for 10 min at 4°C) and 3 μL samples were injected onto an Acuity BEH C18 1.7 μm, 2.1 × 50 mm column and a Sciex API 4000 mass spectrometer (ESI positive ion, MRM mode). Mobile phases A (0.025% formic acid (FA) and 1 mM ammonium acetate (AA) in 5% ACN in water) and B (0.025% FA and 1 mM AA in 95% ACN in water) were used to elute samples (3 μL) at 0.6 mL/min with 10% B for 0.3 min followed by linear gradients to 60% B over 0.6 min and to 90% B over 0.2 min, and ending with 90% B for 0.4 min.\nPK data analysis. […] The linear/log trapezoidal rule was applied in obtaining the PK parameters."}, "[2]": {"experiment": "Intracellular metabolism in rat hepatocytes", "format": "in vitro ADME, Sprague Dawley rat", "description": "Hepatocytes. […] Cryopreserved male mouse (CD1), and fresh male Beagle dog and male cynomolgus monkey hepatocytes were obtained from BioreclamationIVT (Baltimore, MD) and were similarly plated with Matrigel in 6- or 24-well plates and maintained overnight in InVitroGRO™HI medium with Torpedo™ antibiotic (BioreclamationIVT). The protocol described above for measuring AT-511 and its metabolites in Huh-7 cells was repeated with the five different hepatocytes. Untreated cells were collected at 24 h, and the protein content of the cell lysates were determined using a bicinchoninic acid protein assay kit to assess the number of cells in each incubation. Separately, plated human hepatocytes were incubated for 6 h with 100 μM AT-511, followed by washout periods of 0, 2, 6, 18 and 30 h.\nS3 Protocol. LC-MS/MS analysis of AT-511 and metabolites in cultured cells. The supernatant extracts of each hepatocyte and Huh-7 cell incubation were separately analyzed by four different LC-MS/MS methods for quantitation of phosphoramidates, nucleosides, monophosphates, and triphosphates (methods 1, 2, 3 and 4, respectively), using synthetic reference standards of actually and potentially present compounds and using structurally related analogs as internal standards. […]"}}}
{"compound": "C[C@@]1(F)[C@H](O)[C@@H](CO)O[C@H]1n1cnc2c(=O)[nH]c(N)nc21", "note": "[AT-273]", "values": [{"measurement": "AUC(0-t)", "setting": "[1]", "result": "40.3 ± 10.9", "unit": "µM·h"}, {"measurement": "Cmax", "setting": "[1]", "result": "2500 ± 520", "unit": "nM"}, {"measurement": "MRT last", "setting": "[1]", "result": "17.5 ± 2.1", "unit": "h"}, {"measurement": "Tmax", "setting": "[1]", "result": "6.34 ± 0.58", "unit": "h"}, {"measurement": "plasma concentration, individual monkeys", "setting": "Monkey PK study, plasma; 0.500 h", "result": "BQL"}, {"measurement": "plasma concentration, individual monkeys", "setting": "Monkey PK study, plasma; 1.00 h", "result": "BQL"}, {"measurement": "plasma concentration", "setting": "Monkey PK study, plasma; single oral AT-527 100 mg/kg, 0.500 h, monkey 1", "result": "BQL"}, {"measurement": "plasma concentration", "setting": "Monkey PK study, plasma; single oral AT-527 100 mg/kg, 0.500 h, monkey 2", "result": "BQL"}, {"measurement": "plasma concentration", "setting": "Monkey PK study, plasma; single oral AT-527 300 mg/kg, 0.500 h, monkey 1", "result": "BQL"}, {"measurement": "plasma concentration", "setting": "Monkey PK study, plasma; single oral AT-527 300 mg/kg, 0.500 h, monkey 2", "result": "BQL"}, {"measurement": "plasma concentration", "setting": "Monkey PK study, plasma; single oral AT-527 300 mg/kg, 0.500 h, monkey 3", "result": "BQL"}, {"measurement": "plasma concentration", "setting": "Monkey PK study, plasma; single oral AT-527 300 mg/kg, 1.00 h, monkey 1", "result": "BQL"}, {"measurement": "plasma concentration", "setting": "Monkey PK study, plasma; single oral AT-527 300 mg/kg, 1.00 h, monkey 2", "result": "BQL"}, {"measurement": "plasma concentration", "setting": "Monkey PK study, plasma; single oral AT-527 300 mg/kg, 1.00 h, monkey 3", "result": "BQL"}, {"measurement": "plasma concentration", "setting": "Monkey PK study, plasma; single oral AT-527 300 mg/kg, 72.0 h, monkey 3", "result": "BQL"}, {"measurement": "Cmax", "setting": "Monkey PK study, plasma; in vivo, po, 30 mg/kg", "result": "140 ± 10", "unit": "nM"}, {"measurement": "MRT last", "setting": "Monkey PK study, plasma; in vivo, po, 30 mg/kg", "result": "26.9 ± 1.9", "unit": "h"}, {"measurement": "Tmax", "setting": "Monkey PK study, plasma; in vivo, po, 30 mg/kg", "result": "16 ± 6.9", "unit": "h"}, {"measurement": "MRT last", "setting": "Monkey PK study, plasma; in vivo, po, 100 mg/kg", "result": "23.7 ± 3.8", "unit": "h"}, {"measurement": "MRT last", "setting": "Monkey PK study, plasma; in vivo, po, 300 mg/kg", "result": "27.9 ± 8.1", "unit": "h"}, {"measurement": "Tmax", "setting": "Monkey PK study, plasma; in vivo, po, 300 mg/kg", "result": "17.3 ± 11.5", "unit": "h"}, {"measurement": "AUC(0-t)", "setting": "Monkey PK study, plasma; monkey plasma, single oral AT-527 30 mg/kg", "result": "5.42 ± 1.03", "unit": "µM·h"}, {"measurement": "AUC(0-t)", "setting": "Monkey PK study, plasma; monkey plasma, single oral AT-527 100 mg/kg", "result": "10.1 ± 2.6", "unit": "µM·h"}, {"measurement": "Cmax", "setting": "Monkey PK study, plasma; monkey plasma, single oral AT-527 100 mg/kg, read-out: Cmax", "result": "440 ± 170", "unit": "nM"}, {"measurement": "AUC(0-t)", "setting": "Monkey PK study, plasma; monkey plasma, single oral AT-527 300 mg/kg", "result": "12.2 ± 6.1", "unit": "µM·h"}, {"measurement": "Cmax", "setting": "Monkey PK study, plasma; monkey plasma, single oral AT-527 300 mg/kg, read-out: Cmax", "result": "310 ± 50", "unit": "nM"}]}
{"compound": "C[C@@]1(F)[C@H](O)[C@@H](COP(=O)(O)OP(=O)(O)OP(=O)(O)O)O[C@H]1n1cnc2c(=O)[nH]c(N)nc21", "note": "[AT-9010]", "values": [{"measurement": "AUC0-24, intracellular", "setting": "[2]; 10 μM AT-511", "result": 3114, "unit": "pmol*h/10^6 cells"}, {"measurement": "Cmax, intracellular", "setting": "[2]; 10 μM AT-511, 0-24 h", "result": "192.0 ± 67.3", "unit": "pmol/10^6 cells"}]}
